Source: patent EP2563337B1, “CARRIER AND TARGETING SYSTEM COMPRISING A SIOSOMAL COMPOSITION FOR INTRACELLULAR DELIVERY AND TARGETING OF ACTIVE SUBSTANCE” (Salama, Zoser B., priority 2010, dated 2011)
Values joined by “and” are separate entries in the source; they are usually repeats but may differ in a detail not shown here. Identical values can stand only once.

Tests used:
[1] = for Particle size range of the Doxorubicin-siosomes (nm): Example 18: doxorubicin-siosomes prepared from the single organosilicon compound; for Particle size (nm): Example 19: doxorubicin-siosomes from organosilicon compounds and combinations
Description: The siosome size was measured using Zetasizer (Malvern Instruments).
The obtained test samples were analyzed using a Zetasizer from Malvern to measure the particle size of the Siosomes® and its concentration (via determination of the count rate which related to the sample quality and concentration).
The Zetasizer from Malvern performs particle size measurements using a process called Dynamic Light Scattering (DLS). Dynamic Light Scattering (also known as PCS - Photon Correlation Spectroscopy) measures Brownian motion and relates this to the size of the particles. It does this by illuminating the particles with a laser and analyzing the intensity fluctuations in the scattered light. If the particles or molecules are illuminated with a laser, the intensity of the scattered light fluctuates at a rate that is dependent upon the size of the particles as smaller particles are "kicked" further by the solvent molecules and move more rapidly.

[2] = Intracellular distribution of Cis-Oxoplatin within the rat liver, total platinum in liver homogenate and fractions; assay type: in vivo; conditions: rats, 1.5 mg Cis-Oxoplatin encapsulated in Siosomes of the compound, intravenous, 3 hours after administration
Description: • 1. The objective of the study to assess the intracellular distribution of Cis-Oxoplatin (as model drug molecule) in rat liver using Cis-Oxoplatin encapsulated in Siosomes®, using the following organosilicon compounds: • a. Sugar Organosilicon Compound: Didodecylsilyi-di(2,3,4,6-O-tetraacetyl-β-D-glucopyranosid (SIL 17) • b. Cationic Sugar Organosilicon Compound: 2.2-(Dimethyloctylsilylcholin)ethyl- β-D-glucopyranosid (SIL62) • c. Anionic Sugar Organosilicon Compound: 2-(Dimethyidecylsilyl)ethyl-β-D-glucopyranosidsulfate (SIL56) • d. Zwitterionic Sugar Organosilicon Compound: 2-(N,N,N, trimethylammonianonaylsilyl)ethyl- P-D-glucopyranosidsulfate (SIL66) • e. PEGylated Organosilicon Compound: 2-(Dimethyloctylsilylcholin)ethyl-β-D-PEG-acetylglucosaminether (SIL54) • 2. The different Siosomes® using each of the above mentioned organosilicon compounds have been prepared according to the procedures of this invention. The particle size range of the Siosomes® was 120-300 nm.
The Platinum-Siosomes®-Complex formulations were supplied in vials containing 10 mg each. Before administration, the contents of each vial was dissolved using 2 ml of sterile distilled water.
Each rat was administered with 1.5 mg investigative formulation, therefore each rat was administered 300 µl.
At the start of the study, all animals in all treatment groups received 1.5 mg of investigative drug. All drugs given via intravenous route were treated in an ultrasonic bath for five minutes at room temperature.
Tissue fractionation was performed by differential centrifugation yielding 5 fractions: • a. Mitochondrial fraction • b. Cytosol • c. Lysosomes • d. Microsomal fraction • e. Membrane fraction
Animals have been sacrificed 3 hours after the administration of the Siosomes® formulations. The livers have been removed from all animals. The liver homogenate has been prepared from the liver of each treatment group and used for the fractionation of the liver cells.
Each of the animals in the treatment control group for the determination of total platinum in the liver homogenate have been administered the Drug-Siosomes® formulations in the same way/procedures as the treatment groups.
Total platinum concentrations have been determined in each fraction for the treated and untreated animal groups. • Average animal weight = 211.64 ± 21.23 g • Average liver weight = 10.40 ± 1.27 g • Average concentration of total platinum in the liver homogenate of the treatment groups (control) • Group 1: Sugar Organosilicon Compound = 2.34 ± 0.82 µg/g • Group 2: Cationic Sugar Organosilicon Compound = 4.40 ± 1.30 µg/g • Group 3: Anionic Sugar Organosilicon Compound = 2.20 ± 0.90 µg/g • Group 4: Zwitterionic Sugar Organosilicon Compound = 3.10 ± 0.70 µg/g • Group 5: PEGylated Organosilicon Compound = 2.90 ± 1.20 µg/g

[3] = Encapsulation efficiency of doxorubicin hydrochloride in siosomes (absorbance at 480 nm after gel filtration); assay type: physicochemical
Description: A doxorubicin hydrochloride solution at 10 mg/ml was prepared using physiological saline. The predetermined amount of the doxorubicin hydrochloride solution was added to the sugar siosome dispersion using the cationic organosilicon compounds such as 1.2-(Dimethyldecylsilyl)ethyl-beta-D-glucosamin, 2.2-(Dimethyloctylsilylcholin)ethyl-beta-D-glucopyranosid and/or 1.2-(DiN,N,N,trimethylammoniadecylsilyl)ethyl-beta-D-glucopyranosid and the mixture was adjusted to pH 7.4, using 1 N NaOH or saturated sodium hydrogencarbonate and the mixture was stirred at 65°C for 30 minutes the thereby introduce the doxorubicin hydrochloride in the siosomes.
After doxorubicin hydrochloride introduction, the sample was cooled in an ice bath. Gel filtration was conducted using a column (Sepharose 4, fast flow, having a diameter of 2.8 cm and a length of 20 cm, fully substituted with 10% sucrose (pH 6.5)) to remove the doxorubicin hydrochloride that had not been introduced in the siosomes.
The amount of the sugar silanes in the siosomes, the amounts of the doxorubicin hydrochloride encapsulated in the siosomes and the siosomes themselves were measured by the same methods as in the above examples.
Concentration of the doxorubicin hydrochloride encapsulated in the siosomes was determined by measuring absorbance at 480 nm, using a spectrophotometer for the solution prepared by adding 2 ml of methanol to 40 µl of the doxorubicin siosomes. An alternative HPLC-based assay has also been used for the quantification of the doxorubicin in the formulations.
The above procedures described in example 16 were employed to prepare the carrier siosomes systems in this example. According to these methods of preparation, a dispersion of each of the following organo-silicon compounds were prepared, using doxorubicin hydrochloride solutions at […]. • Sil 8.1: Decyldimethylsilyl-α-D-galactopyranosid • Sil 9.1: Dodecyldimethylsilyl-α-D-glucopyranosid • SIL 15: 1-O-Dioctadecylsilyl-di(2,3,4,6-O-tetracetyl-β-D-galactopyranosid) • SIL 14: 1-o-Dioctadecylsilyl-di(2,3,4,6-O-tetracetyl-β-D-glucopyranosid)1-o- • SIL17: Didodecylsilyl-di(2,3,4,6-O-tetracetyl-β-D-glucopyranosid) • SIL18: Tridodecylsilyl-(2,3,4,6-O-tetracetyl-β-D-glucopyranosid) • Sil22.1 Di(octadecanoyloxy)dimethylsilan
The following parameters have been determined: 1 Physico chemical properties 2 Encapsulated efficiency of doxorubicin 3 Stability 4 Particle size distribution prior to lyophilisation and after dehydration using sterile water for injection 5 Release profile

[4] = IPSS E011: pharmacokinetics and bioaccumulation of platinum complexes, total platinum in blood and organs by AAS; assay type: in vivo; conditions: rats, 1.0 mg intravenous, repeated dose over 7 consecutive days
Description: IPSS E011: A Clinical Study in Rats on the Pharmacokinetics and Bioaccumulation of Platinum Complexes following the Repeated Dose over 7 Consecutive Days of Formulations (PT-11, PT-12 and PT-13), with 7 Days Non-Treatment Period
The following tables and figure 12 illustrate a summary of the generated results.

[5] = Example 18: doxorubicin-siosomes prepared from the single organosilicon compound
[6] = Example 19: doxorubicin-siosomes from organosilicon compounds and combinations

Molecule | Particle size range of the Doxorubicin-siosomes (nm) [1] | Encapsulation efficiency (%) [3, 5] | further results
2-(N,N,N,trimethylammonia nonanyllsilyl)ethyl-beta-D-glucopyranosid sulfate [SIL 66] | 150-220 nm | 55-70% | Average concentration of total platinum in the liver homogenate [2]: 3.10 ± 0.70 µg/g
2-(Dimethyloctadecylsilyl)ethyl-beta-N-acetylmuramic acid [SIL 60] | 200-250 nm | 60-70% | 
2-(Dimethylcholesterylhemisuccinatesilyl)ethyl-beta-D-glucopyranosid sulfate [SIL 59] | 180-220 nm | 60-70% | 
2-(Dimethyloctylsilylcholin)ethyl-beta-D-PEG-acetylglucosaminether [SIL 54] | 200-250 nm | 80-85% | 
2-(Dimethyl nonaoic acid silyl)ethyl-beta-D-PEG-acetylglucosaminether [SIL 53] | 180-250 nm | 80-85% | 
CCCCCCCCCCCCCCCCCC[Si](CCCCCCCCCCCCCCCCCC)(O[C@@H]1O[C@H](COC(C)=O)[C@H](OC(C)=O)[C@H](OC(C)=O)[C@H]1OC(C)=O)O[C@@H]1O[C@H](COC(C)=O)[C@H](OC(C)=O)[C@H](OC(C)=O)[C@H]1OC(C)=O [SIL 15, 1-O-Dioctadecylsilyl-di(2,3,4,6-O-tetraacetyl-β-D-galactopyranosid)] | 180-250 nm | 70-78% | 
C[Si](C)(CCCCCCCCC(=O)O)CCO[C@@H]1O[C@H](CO)[C@@H](O)[C@H](O)[C@H]1O [SIL 58, 2-(Dimethylnonanoic acid silyl)ethyl-beta-D-glucopyranosid] | 150-270 nm | 70-80% | 
CCCCCCCC[Si](C)(C)CCO[C@@H]1O[C@H](CO)[C@H](O)[C@H](O)[C@H]1O [SIL 22, 2-(Dimethyloctylsilyl)ethyl-β-D-galactopyranosid] |  |  | Particle size (nm) [1]: 250-300 nm; Encapsulation efficiency (%) [3, 6]: 55-70%
CCCCCCCCCCCCCCCCCC[Si](CCCCCCCCCCCCCCCCCC)(O[C@@H]1O[C@H](COC(C)=O)[C@@H](OC(C)=O)[C@H](OC(C)=O)[C@H]1OC(C)=O)O[C@@H]1O[C@H](COC(C)=O)[C@@H](OC(C)=O)[C@H](OC(C)=O)[C@H]1OC(C)=O [SIL 14, 1-O-Dioctadecylsilyl-di(2,3,4,6-O-tetraacetyl-β-D-glucopyranosid)] | 210-260 nm | 75-80% | 
C[Si](C)(CCCCCCCCCC(=O)O)CCOC1O[C@H](CO)[C@H](O)[C@H](O)[C@H]1N (stereo partly drawn) [SIL 68] | 180-220 nm | 70-80% | 
CCCCCCCCCC(=O)O[Si](C)(C)OC(=O)CCCCCCCCC [SIL 21.1, Di(decanoyloxy)dimethylsilan] | 210-240 nm | 60-75% | 
CCCCCCCCCCCC[Si](C)(C)O[C@H]1O[C@H](CO)[C@@H](O)[C@H](O)[C@H]1O [Sil 9.1, Dodecyldimethylsilyl-α-D-glucopyranosid] | 150-200 nm | 60-65% | 
CCCCCCCCCC[Si](C)(C)O[C@H]1O[C@H](CO)[C@H](O)[C@H](O)[C@H]1O [Sil 8.1, Decyldimethylsilyl-α-D-galactopyranosid] | 100-220 nm | 65-70% | 
CCCCCCCCCC[Si](C)(C)CCO[C@@H]1O[C@H](C(=O)O)[C@@H](O)[C@H](O)[C@H]1O [SIL 57, 2-(Dimethyldecylsilyl)ethyl-beta-D-glucopyranosidcarboxylate] | 180-270 nm | 75-80% | 
2-(N,N,N,trimethylammonia nonyllsilyl)ethyl-beta-D-glucopyranosid [SIL 67] | 200-280 nm | 60-70% | 
N.N.[Cl-].[Cl-].[OH-].[OH-].[Pt+4] [Standard Cis-Oxoplatin, Cis-oxoplatin] |  |  | Concentration of Total Platinum in Blood (ng/ml), Average ([4]; 7 days non-treatment period, average of 6 rats): 1521,92 ng/ml; Concentration of Total Platinum in Blood (ng/ml) ([4]; 7 days non-treatment period, individual rats): 1814,30 ng/ml and 1131,40 ng/ml and 1522,90 ng/ml and 1244,30 ng/ml and 1864,30 ng/ml and 1554,30 ng/ml; Concentration of Total Platinum in Kidney (µg/g), Average ([4]; average of 6 rats): 14,92 µg/g; Concentration of Total Platinum in Lung (µg/g), Average ([4]; average of 6 rats): 0,77 µg/g; Concentration of Total Platinum in Spleen (µg/g), Average ([4]; average of 6 rats): 2,39 µg/g; Concentration of Total Platinum in Stomach (µg/g), Average ([4]; average of 6 rats): 0,41 µg/g; Concentration of Total Platinum in Kidney (µg/g) ([4]; individual rats): 21,22 µg/g and 13,92 µg/g and 15,88 µg/g and 11,62 µg/g and 11,76 µg/g and 15,12 µg/g; Concentration of Total Platinum in Lung (µg/g) ([4]; individual rats): 0,80 µg/g and 0,62 µg/g and 1,09 µg/g and 0,52 µg/g and 0,71 µg/g and 0,86 µg/g; Concentration of Total Platinum in Stomach (µg/g) ([4]; individual rats): 0,51 µg/g and 0,47 µg/g and 0,38 µg/g and 0,35 µg/g (2×) and 0,37 µg/g; Concentration of Total Platinum in Spleen (µg/g) ([4]; individual rats, listed as Standard Cis-Oxoplatinum): 1,99 µg/g and 2,28 µg/g and 2,35 µg/g and 2,10 µg/g and 3,81 µg/g and 1,80 µg/g
CCCCCCCCCCCC[Si](CCCCCCCCCCCC)(CCCCCCCCCCCC)O[C@@H]1O[C@H](COC(C)=O)[C@@H](OC(C)=O)[C@H](OC(C)=O)[C@H]1OC(C)=O [SIL 18, Tridodecylsilyl-(2,3,4,6-O-tetraacetyl-β-D-glucopyranosid)] | 160-250 nm | 55-60% | Particle size (nm) [1]: 220-350 nm; Encapsulation efficiency (%) [3, 6]: 60-80%
